Where two headings read alike, the source gives them in different places.
Experiments:
rat foot swelling = assay: Rat foot swelling model (egg white); assay type: in vivo; settings: 5.0 mg/kg intraperitoneal, 10-60 min after egg white
Description: the NO kit, and the amount of NO produced in each well was calculated. Each group of experiment was performed in parallel three times.
All the animals were acclimated under standard laboratory conditions and had free access to standard water and food. All procedures were conducted in accordance with the “Guiding Principles in the Care and Use of Animals” (China) and were approved by the Ethics Committee of Biomedical Scientific Research of Henan University.
Thirty two male and female rats were divided into four groups with eight rats in each group.
They were normal saline negative control group, dexamethasone positive control group, n-butanol phase of Lonicera japonica Thunb. leaves (RDY nB) administration group and the […]
The intraperitoneal injection method was used
One hour after injection the corresponding drugs in each group, 0.1 mL of fresh egg white was injected into the right postal paw of each rat. Before and after the injection of egg white at 10, 20, 30, 40, 50, and 60 min, the volume of the right postal paw of rat was measured by a toe volume meter, and the swelling rate was calculated. […]
Statistical analysis was analyzed by one-way ANOVA through SPSS 17.0 software, and all data expressed as mean ± SD. Meanwhile, the significant difference between groups was evaluated by Tukey post-hoc test, P<0.05 and P<0.01 were considered statistically Information Classification: General […]

RAW264.7 cells [1] = assay: Cytotoxicity assay (CCK-8) in RAW264.7 cells; assay type: cell-based, mouse; settings: for Toxicity on RAW264.7 cells (in words): 20-60 μM, luteolin 1-5 μM
Description: (§1) For cytotoxicity assay, RAW264.7 cells were seeded in 96-well plates at an inoculation amount of 3 × 10^4/well, and the medium was changed after culturing for 24 h at 37 °C and 5% […]
(§2) concentration (20 μM, 40 μM and 60 μM) of sample solution prepared with fresh medium was added dropwise to 96-well plate. After incubation for 2 h, LPS with a final concentration of 100 ng/mL was added to each well of the experimental group and the model group , the same volume of PBS was added to the normal group and the negative control group. After stimulation for another 22 h, the medium was removed and replaced with fresh medium. 10 μL of CCK-8 reagent was added at room temperature in the dark, and the absorbance was measured at a wavelength of 450 nm after 1 h. […]

5-LOX [2] = biological target: T1, 5-LOX (Glycine max, UniProt P08170); assay: 5-LOX immobilised on TiO2 nanotubes microreactor screening (HPLC peak area ratio); assay type: binding; settings: analytes of LLJT extract eluted from immobilised 5-LOX, HPLC-MS
Description: Glutaraldehyde (GA) was used as crosslinking agent to covalently immobilise 5-LOX on the amino terminated TNTs. The NH2-TNTs was added to GA solution and shaken in a incubator at room temperature (25 °C) for 8 h. The resulting product was labelled GA-TNTs. Then GA-TNTs was merged with Tris-HCl solution (0.1 M, pH 7.0) containing a certain amount of 5-LOX, and the immobilisation was performed in a shaker at 4 °C for a certain time. After that, the immobilised 5-LOX was acquired by centrifuge to remove supernatant and comprehensively rinsed with Tris-HCl buffer solution several times to remove the unimmobilised enzyme. The 5-LOX-TNTs composites were suspended in Tris-HCl solution and stored at 4 °C before use.
The crude extract of leaves of Lonicera japonica Thunb. was added to 5% (v/v) methanol-Tris buffer solution, and dissolved by ultrasonic to prepare an incubation solution with a concentration of about 5.66 mg/mL. Then 25 mg of material immobilised with 5-LOX was combined with 1 mL of incubation solution and incubated at 25 °C for 90 min on a shaker. After incubation, the material was washed with 1 mL of buffer solution for six times. Then 1 mL of 90% (v/v) acetonitrile aqueous solution was used for ultrasonic elution for 10 min. After centrifugation, the supernatant was filtered and analysed by HPLC-MS.
The screening processes were the same as above.

5-LOX [3] = biological target: T1, 5-LOX; assay: Offline enzyme model: 5-LOX inhibition, linoleic acid / FOX reagent, A590; assay type: biochemical; settings: concentration 1.0 mmol/L
Text: Specific steps were as follows:
Information Classification: General
(1 picture or pasted object on this page, not shown here)

RAW264.7 cells [4] = assay: Cell morphology observation of RAW264.7 cells; assay type: cell-based, mouse; settings: 60 μM, with and without LPS 100 ng/mL, microscope 200x
Description: The RAW264.7 mouse macrophage cell line (RAW264.7) was cultured in DMEM (Dulbecco's modified eagle medium) supplemented with 10% (v/v) Fetal bovine serum (FBS), 1×105 U·L-1 penicillin and 100 mg·L-1 streptomycin under an atmosphere of humidified 5% CO2 at 37 °C to the logarithmic phase. The samples were dissolved in DMSO and diluted with medium to the desired concentration. The content of DMSO should not exceed 1‰.
There are blank group (no test sample, no LPS), model group (100 ng/mL LPS), experimental group (60 μM test sample + LPS) and negative control group (60 μM test sample) were tested.
For cell morphology observation , the cells were seeded into 6 -well plates at an inoculation amount of 6 ×10^5/well, cultured at 37 °C and 5% CO2 for 24 h, and then the medium was changed. After 2 h incubation with different groups, LPS stimulation with a final concentration of 100 ng/mL were added into the model group and experimental group .
normal group and the negative control group were added with the same volume of PBS, and then photographed under a microscope (200x) after 22 h.

RAW264.7 cells [5] = assay: NO production in LPS-stimulated RAW264.7 cells (NO kit); assay type: cell-based, mouse; settings: for LPS-induced NO release in RAW264.7 cells (in words): compared with the model group
Description: For the effects of the test samples on NO production research, RAW264.7 cells were seeded in 96-well plates at 3×10^4 cells/well, cultured at 37°C, 5% CO 2, and the medium was changed after 24 h. There were the blank group, model group, experimental group (20 μM, 40 μM, 60 μM test sample+LPS) and negative control group (60 μM test sample). After dosing, the cells were incubated at 37 °C with 5% CO 2 for 2 h, then LPS was added to the model group and the experimental group to make the final concentration reach 100 ng/mL, the normal group and the negative control group were added with the same volume of PBS, Then 50 μL of supernatant was taken after culturing for 20 h to record the absorbance value at 540 nm using Information Classification: General

[6] = Cytotoxicity assay (CCK-8) in RAW264.7 cells; assay type: cell-based, mouse; settings: mouse, RAW264.7 cells, read-out: Cell viability (%)
Description: as §1, §2

5-LOX [7] = system: 5-LOX; parameters: method as in earlier work; settings: RBL-1 cells; cited from earlier work
[8] = Cytotoxicity assay (CCK-8) in RAW264.7 cells; assay type: cell-based; settings: mouse, no LPS, read-out: Cell viability (%)
[9] = 40 μmol/L, LPS 100 ng/mL, vs model group
[10] = 60 μmol/L, LPS 100 ng/mL, vs model group

T1 sequence (P08170 whole entry): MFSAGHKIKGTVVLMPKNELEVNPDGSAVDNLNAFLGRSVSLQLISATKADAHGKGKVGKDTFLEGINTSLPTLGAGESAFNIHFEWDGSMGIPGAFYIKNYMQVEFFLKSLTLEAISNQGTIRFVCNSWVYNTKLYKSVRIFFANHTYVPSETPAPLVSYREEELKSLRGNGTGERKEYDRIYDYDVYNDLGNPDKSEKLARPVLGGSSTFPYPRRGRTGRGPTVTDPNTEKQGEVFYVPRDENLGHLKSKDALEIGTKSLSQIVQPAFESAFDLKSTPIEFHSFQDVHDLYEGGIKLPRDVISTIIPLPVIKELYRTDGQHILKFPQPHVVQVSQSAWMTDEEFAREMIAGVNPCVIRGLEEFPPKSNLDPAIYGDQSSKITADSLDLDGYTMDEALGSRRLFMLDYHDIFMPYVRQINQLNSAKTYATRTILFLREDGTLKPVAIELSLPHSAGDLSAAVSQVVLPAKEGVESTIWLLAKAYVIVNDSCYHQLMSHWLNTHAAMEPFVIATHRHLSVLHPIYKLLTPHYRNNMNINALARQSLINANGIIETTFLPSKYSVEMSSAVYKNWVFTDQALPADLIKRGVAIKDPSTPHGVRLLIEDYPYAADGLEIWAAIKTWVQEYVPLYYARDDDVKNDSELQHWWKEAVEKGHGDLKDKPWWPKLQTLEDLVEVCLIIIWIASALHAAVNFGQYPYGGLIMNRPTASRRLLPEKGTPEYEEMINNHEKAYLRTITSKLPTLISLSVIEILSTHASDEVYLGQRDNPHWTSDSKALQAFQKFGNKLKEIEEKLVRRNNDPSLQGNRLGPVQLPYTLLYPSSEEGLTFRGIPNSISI

SMILES | Cell viability (%) (RAW264.7 cells [1]; 20 μmol/L, LPS 100 ng/mL) | Cell viability (%) (RAW264.7 cells [1]; 20 μmol/L, no LPS) | Cell viability (%) (RAW264.7 cells [1]; 40 μmol/L, LPS 100 ng/mL) | Cell viability (%) (RAW264.7 cells [1]; 40 μmol/L, no LPS) | Cell viability (%) (RAW264.7 cells [1]; 60 μmol/L, LPS 100 ng/mL) | Cell viability (%) (RAW264.7 cells [1]; 60 μmol/L, no LPS) | Toxicity on RAW264.7 cells (in words) (RAW264.7 cells [1]) | Bonding rate (%) (5-LOX [2]) | Inhibitory rate (%) (5-LOX [3]) | Effect on morphology of RAW264.7 cells (RAW264.7 cells [4]) | NO content (RAW264.7 cells [5]; 20 μmol/L, LPS 100 ng/mL) [µmol/L] | NO content (RAW264.7 cells [5]; 20 μmol/L, no LPS) [µmol/L] | NO content (RAW264.7 cells [5]; 40 μmol/L, LPS 100 ng/mL) [µmol/L] | Inhibition rate (%) of NO production (RAW264.7 cells [5]; [9]) [%] | NO content (RAW264.7 cells [5]; 60 μmol/L, LPS 100 ng/mL) [µmol/L] | Inhibition rate (%) of NO production (RAW264.7 cells [5]; [10]) [%] | LPS-induced NO release in RAW264.7 cells (in words) (RAW264.7 cells [5]; LPS 100 ng/mL) | viability at 24 h, 20 μmol/L ([6]; LPS 100 ng/mL) [%] | viability at 24 h, 20 μmol/L ([6]; no LPS) [%] | viability at 24 h, 40 μmol/L ([6]; LPS 100 ng/mL) [%] | other results
C[C@@H]1C[C@H]2[C@@H]3CCC4=CC(=O)C=C[C@]4(C)[C@@]3(F)[C@@H](O)C[C@]2(C)[C@@]1(O)C(=O)CO [Dexamethasone] | – | – | – | – | – | – | – | – | – | – | – | – | – | – | – | – | – | – | – | – | Anti-inflammatory effect, foot swelling rate (rat foot swelling): showed a good anti-inflammatory effect
O=C(/C=C/c1ccc(O)c(O)c1)O[C@H]1[C@H](O)C[C@](O)(C(=O)O)C[C@H]1OC(=O)/C=C/c1ccc(O)c(O)c1 [Isochlorogenic acid C, isochlorogenic acid C] | 206.6±7.8 | 140.0±7.6 | 188.8±1.4 | 190.4±0.2 | 201.4±3.8 | 186.6±4.1 | low toxicity on RAW264.7 cells | 6.34 | 40.24 | improve the deformation of the inflammatory cells | 6.6 ± 0.3 | 5.9 ± 0.4 | 6.7 ± 0.6 | 25.6 | 7.2 ± 0.6 | 19.9 | can inhibit LPS-induced NO release in RAW264.7 cells | – | – | – | –
C[C@@H]1O[C@@H](O[C@H]2[C@H](Oc3cc(O)c4c(=O)cc(-c5ccc(O)c(O)c5)oc4c3)O[C@H](CO)[C@@H](O)[C@@H]2O)[C@H](O)[C@H](O)[C@H]1O [Lonicerin, lonicerin] | – | – | – | – | – | – | low toxicity on RAW264.7 cells | 23.42 | – | improve the deformation of the inflammatory cells | 6.9 ± 0.3 | 6.1 ± 0.1 | 7.4 ± 0.2 | – | 7.9 ± 2.4 | – | could also inhibit LPS-induced NO release | 216 ± 4.2 | 196.2 ± 1.8 | 204 ± 3.5 | viability at 24 h, 40 μmol/L ([6]; no LPS): 180 ± 9.1%; viability at 24 h, 60 μmol/L ([6]; LPS 100 ng/mL): 226 ± 7.8%; viability at 24 h, 60 μmol/L ([6]; no LPS): 179.4 ± 0.8%; inhibition at 20 µM (RAW264.7 cells [5]; Mus musculus, RAW264.7, 20 μmol/L, LPS 100 ng/mL, vs model group, read-out: Inhibition rate (%) of NO production): 23.7%; inhibition at 40 µM (RAW264.7 cells [5]; Mus musculus, RAW264.7, 40 μmol/L, LPS 100 ng/mL, vs model group, read-out: Inhibition rate (%) of NO production): 18.5%; inhibition at 60 µM (RAW264.7 cells [5]; Mus musculus, RAW264.7, 60 μmol/L, LPS 100 ng/mL, vs model group, read-out: Inhibition rate (%) of NO production): 12.4%
O=c1cc(-c2ccc(O)c(O)c2)oc2cc(O)cc(O)c12 [Luteolin, luteolin] | – | – | – | – | – | – | – | 34.85 | – | cause a large number of cell death | – | – | – | – | – | – | failed to inhibit | 52.6 ± 3.1 | 49.5 ± 3.9 | 33.4 ± 12.9 | IC50 (5-LOX [7]): 810 nM; viability at 24 h, 1 μmol/L ([6]; LPS 100 ng/mL): 195 ± 2.6%; viability at 24 h, 1 μmol/L ([6]; no LPS): 120 ± 7.2%; viability at 24 h, 2 μmol/L ([6]; 2 μmol/L, LPS 100 ng/mL): 199 ± 8.6%; viability at 24 h, 5 μmol/L ([6]; 5 μmol/L, LPS 100 ng/mL): 170 ± 3.5%; viability at 24 h, 40 μmol/L ([6]; no LPS): 22 ± 2.4%; viability at 24 h, 60 μmol/L ([6]; LPS 100 ng/mL): 1.4 ± 0.6%; viability at 24 h, 60 μmol/L ([6]; no LPS): 1.5 ± 0.4%; NO content (RAW264.7 cells [5]; 1 μmol/L, LPS 100 ng/mL): 14.4 ± 0.4 µmol/L; NO content (RAW264.7 cells [5]; 1 μmol/L, no LPS): 11.6 ± 0.6 µmol/L; NO content (RAW264.7 cells [5]; 2 μmol/L, LPS 100 ng/mL): 12.1 ± 0.1 µmol/L; NO content (RAW264.7 cells [5]; 5 μmol/L, LPS 100 ng/mL): 9.4 ± 0.5 µmol/L; inhibition at 1 µM (RAW264.7 cells [5]; Mus musculus, RAW264.7, 1 μmol/L, LPS 100 ng/mL, vs model group, read-out: Inhibition rate (%) of NO production): -51.1%; inhibition at 2 µM (RAW264.7 cells [5]; Mus musculus, RAW264.7, 2 μmol/L, LPS 100 ng/mL, vs model group, read-out: Inhibition rate (%) of NO production): -26.4%; inhibition at 5 µM (RAW264.7 cells [5]; Mus musculus, RAW264.7, 5 μmol/L, LPS 100 ng/mL, vs model group, read-out: Inhibition rate (%) of NO production): 1.8%; viability at 24 h, 2 μmol/L [8]: 104 ± 8.5%
O=c1cc(-c2ccc(O)c(O)c2)oc2cc(O[C@@H]3O[C@H](CO)[C@@H](O)[C@H](O)[C@H]3O)cc(O)c12 [Luteoloside, luteoloside] | 102.6±0.4 | 100.2±2.1 | 104.2±3.4 | 102.1±1.7 | 103.2±4.8 | 56.8±8.8 | – | 8.87 | 27.26 | no significant effect on cells | 11.5 ± 0.1 | 15.8 ± 1.5 | 11.9 ± 0.5 | -24.9 | 13.6 ± 1.3 | -43.0 | failed to inhibit | – | – | – | Inhibition rate (%) of NO production (RAW264.7 cells [5]; 20 μmol/L, LPS 100 ng/mL, vs model group): -20.2%

Source: article PMC9518244, “TiO2 nanotube immobilised 5-lipoxygenase-mediated screening and isolation of anti-inflammatory active compounds from the leaves of lonicera japonica thunb” (Journal of Enzyme Inhibition and Medicinal Chemistry, 2022)
